pIC50: −log10 of the molar value.
Columns and labels:
[1] = system: Osteoclast precursor cells; assay: Osteoclast differentiation assay (acid phosphatase readout); assay type: cell-based
Description: Further, an osteoclast differentiation assay is used to assess the efficacy of Fms inhibitors for treating bone disease such as osteoarthritis. On day 0, Osteoclast Medium BulletKit (Lonza catalog #PT-8001, containing Media, FBS, L-Glutamine, PenStrep, RANKL, and M-CSF) media is thawed and the FBS, L-glutamine and PenStrep from the kit is added to 100 mL of Osteoclast Precursor Basal medium to provide the Osteoclast Precursor Growth Medium (OPGM). This is warmed to 37° C. Osteoclast precursor cells (Lonza catalog #2T-110) frozen in cryovial are warmed to 37° C. and transferred to a 50 mL conical tube. The cryovial is rinsed with OPGM and added dropwise to the conical tube of cells with swirling, then the volume is adjusted to 20-30 mL with addition of OPGM. The cells are centrifuged at 200×g for 15 minutes at room temperature and all but approximately 3 mL of supernatant is removed to a new conical tube. The cells are suspended in the remaining supernatant and the volume is adjusted to 10-15 mL with OPGM added dropwise with swirling. The cells are centrifuged at 200×g for 15 minutes at room temperature and all but approximately 1 mL of supernatant is removed. The cells are resuspended in the remaining supernatant, counted, and the volume adjusted with an appropriate amount of OPGM to provide approximately 1×10^5 cells/mL. A 0.1 mL aliquot of cells is added to each well of a 96-well plate. Compound to be tested is prepared in DMSO for plating at a high concentration of 2.5 mM, with 8 point 1:3 serial dilutions. A 1 μL aliquot of each compound dilution is added to a 96 well v-bottom polypropylene plate and 0.124 mL of OPGM is added to the compound. Then 50 μL at of the compound in OPGM is added to the osteoclast precursor cells in 96-well plate (providing highest test concentration of 5 μM). RANKL (2 μg) from the BulletKit is reconstituted in 1 mL of OPGM, then vortexed and centrifuged briefly. A 792 μL at aliquot of RANKL is added to 6 mL of OPGM and 50 μL at is added to low control wells. Then 76.6 μL M-CSF (10 μg/mL) from the BulletKit is added to the remaining 5.8 mL of OPGM/RANKL solution (4×RANKL/M-CSF/OPGM). A 50 μL at aliquot of this is added to the remaining wells, and the remainder is stored at 4° C. for later use. The plate is incubated at 37° C. for 6 days, then the remaining OPGM/RANKL/M-CSF solution is warmed to 37° C. The remaining approximately 198 μL is combined with 6 mL of OPGM. The media is aspirated from the osteoclast wells and 100 μL of RANKL/OPGM is added to the low controls. The remaining RANKL/OPGM is combined with the approximately 18.5 μL of remaining M-CSF. The remaining 4×RANKL/M-CSF/OPGM from day 0 is diluted to 1× and combined with the freshly prepared solution. A 0.1 mL aliquot of this is added to each osteoclast well and incubated for 37° C. for 1 day. The Acid Phosphatase kit (Cayman Chemical catalog #10008051) is warmed to room temperature. The assay buffer is diluted 5 mL with 45 mL of water. For each plate, two substrate tablets are dissolved in 4.5 mL of the assay buffer, mixing by vortex to break up the tablet. Stop solution is diluted 12 mL with 36 mL of water. In a tissue culture hood, 20 μL of each osteoclast well supernatant is transferred to a 96 well plate. A 30 μL aliquot of the substrate solution is added to each well and incubated at 37° C. for 20 minutes, then added 100 μL stop solution to each well. The absorbance of each well is read at 405 nm on Safire plate reader. The absorbance reading is plotted vs. concentration to provide the IC50 for each compound.

[2] = Relative solubility by turbidity in aqueous buffers (pH 1.5, 4.5, 6.8, 7.4); assay type: physicochemical; conditions: for turbidity threshold (L, M, H) 1.4: pH 1.5 (SGF); for turbidity threshold (L, M, H) 4.5: pH 4.5 (SIF); for turbidity threshold (L, M, H) 6.8: pH 6.8 (SIF); for turbidity threshold (L, M, H) 7.4: pH 7.4 (HEPES)
How it was run: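 Twofold DMSO dilutions of a 25 mM stock were spiked into SGF (0.5M NaCl, pH 1.5), SIF (0.05M NaH2PO4, pH 4.5 and 6.8) or HEPES buffer (10 mM HEPES, 150 mM NaCl, pH 7.4). Absorbance was read at 490, 535 and 650 nm. The endpoint is the concentration crossing O.D. 0.01, averaged across wavelengths.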

Compound	pIC50 [1]	turbidity threshold (L, M, H) 1.4 [2]	turbidity threshold (L, M, H) 4.5 [2]	turbidity threshold (L, M, H) 6.8 [2]	turbidity threshold (L, M, H) 7.4 [2]
CCOc1ncnc2[nH]cc(Cc3ccc(Nc4cnn(CC)c4)nc3F)c12 [Compound P-4012, [5-(4-Ethoxy-7H-pyrrolo[2,3-d]pyrimidin-5-ylmethyl)-6-fluoro-pyridin-2-yl]-(1-ethyl-1H-pyrazol-4-yl)-amine]	> 7.00	M (moderate solubility if the threshold concentration is 31.3 μM to 250 μM)	L (low solubility if the threshold concentration is <31.3 μM)	L (low solubility if the threshold concentration is <31.3 μM)	L (low solubility if the threshold concentration is <31.3 μM)
CCn1cc(Nc2ccc(Cc3c[nH]c4ncnc(C)c34)c(F)n2)cn1 [Compound P-4013, (1-Ethyl-1H-pyrazol-4-yl)-[6-fluoro-5-(4-methyl-7H-pyrrolo[2,3-d]pyrimidin-5-ylmethyl)-pyridin-2-yl]-amine]	> 7.00	H (high solubility if the threshold concentration is >250 μm)	M (moderate solubility if the threshold concentration is 31.3 μM to 250 μM)	M (moderate solubility if the threshold concentration is 31.3 μM to 250 μM)	M (moderate solubility if the threshold concentration is 31.3 μM to 250 μM)
CCn1cc(Nc2ccc(Cc3c[nH]c4ncnc(OCCOC)c34)c(F)n2)cn1 [Compound P-4014, (1-Ethyl-1H-pyrazol-4-yl)-{6-fluoro-5-[4-(2-methoxy-ethoxy)-7H-pyrrolo[2,3-d]pyrimidin-5-ylmethyl]-pyridin-2-yl}-amine]	> 7.00	M (moderate solubility if the threshold concentration is 31.3 μM to 250 μM)	M (moderate solubility if the threshold concentration is 31.3 μM to 250 μM)	M (moderate solubility if the threshold concentration is 31.3 μM to 250 μM)	M (moderate solubility if the threshold concentration is 31.3 μM to 250 μM)
COCCOc1ncnc2[nH]cc(Cc3ccc(Nc4ccc(C)nc4)nc3F)c12 [Compound P-4015, {6-Fluoro-5-[4-(2-methoxy-ethoxy)-7H-pyrrolo[2,3-d]pyrimidin-5-ylmethyl]-pyridin-2-yl}-(6-methyl-pyridin-3-yl)-amine]	> 7.00	M (moderate solubility if the threshold concentration is 31.3 μM to 250 μM)	M (moderate solubility if the threshold concentration is 31.3 μM to 250 μM)	M (moderate solubility if the threshold concentration is 31.3 μM to 250 μM)	M (moderate solubility if the threshold concentration is 31.3 μM to 250 μM)
CCc1ccc(Nc2ccc(Cc3c[nH]c4ncnc(OCCOC)c34)c(F)n2)cn1 [Compound P-4016, (6-Ethyl-pyridin-3-yl)-{6-fluoro-5-[4-(2-methoxy-ethoxy)-7H-pyrrolo[2,3-d]pyrimidin-5-ylmethyl]-pyridin-2-yl}-amine]	> 7.00	M (moderate solubility if the threshold concentration is 31.3 μM to 250 μM)	H (high solubility if the threshold concentration is >250 μm)	M (moderate solubility if the threshold concentration is 31.3 μM to 250 μM)	M (moderate solubility if the threshold concentration is 31.3 μM to 250 μM)
COc1ccc(Nc2ccc(Cc3c[nH]c4ncnc(C5CC5)c34)c(F)n2)cn1 [Compound P-4023, [5-(4-cyclopropyl-7H-pyrrolo[2,3-d]pyrimidin-5-ylmethyl)-6-fluoro-pyridin-2-yl]-(6-methoxy-pyridin-3-yl)-amine]	> 7.00	H (high solubility if the threshold concentration is >250 μm)	M (moderate solubility if the threshold concentration is 31.3 μM to 250 μM)	L (low solubility if the threshold concentration is <31.3 μM)	L (low solubility if the threshold concentration is <31.3 μM)

Source: patent US8901118B2, “Compounds and methods for kinase modulation, and indications therefor” (Plexxikon Inc., priority 2010, dated 2014)
